Test results taken from ChEMBL document CHEMBL4002559, “Micromonohalimanes A and B: Antibacterial Halimane-Type Diterpenoids from a Marine Micromonospora Species” (2016).
Converted amounts (≈) assume the structure as drawn. The source made the active and inactive calls. No cut-off for these calls is given here.

How the values were obtained:
[1] = test system: Staphylococcus aureus; experiment: Antibacterial activity against methicillin-resistant Staphylococcus aureus ATCC 33591 after 18 hrs by dilution method; assay type: functional; conditions: ATCC 33591, 18 h
[2] = test system: Staphylococcus aureus; experiment: Bacteriostatic activity against methicillin-resistant Staphylococcus aureus ATCC 33591 by LB plate method; assay type: functional

CC(=O)O[C@H](C[C@@]1(C)[C@@H]2CCCC(C)(C)C2=CC[C@@H]1C)[C@@]1(O)COC(=O)[C@@H]1O
MIC [1]: > 200 µg/mL

CC(=O)O[C@H]1C(=O)O[C@H](C[C@@]2(C)[C@@H]3CCCC(C)(C)C3=CC[C@@H]2C)[C@]1(O)CCl
MIC [1]: 40 µg/mL (≈ 96.9 µM) | Activity [2]: Active
